System: NOMO1
Assay: cell viability relative to DMSO control; higher = less cytotoxic
Settings: 48 h
Method in brief: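 NOMO1 or SEM cells were plated at 500 cells/well and P12-Ichikawa cells at 1000 cells/well in 1536-well plates (5 μl), after each leukemia line had been adapted for at least four passages in each medium. Pin dosing delivered library compounds in DMSO at 11 threefold concentrations, 47 μM to 0.79 nM. CellTiter-Glo One luminescence was read after 48 h at 37°C. Viability is reported as a per-plate percentage of DMSO wells, with cell-free wells as background.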

[1] = HPLM + 10% dialyzed FBS, 0.000781 µM
[2] = HPLM + 10% dialyzed FBS, 0.00234 µM
[3] = HPLM + 10% dialyzed FBS, 0.00702 µM
[4] = HPLM + 10% dialyzed FBS, 0.0211 µM
[5] = HPLM + 10% dialyzed FBS, 0.0632 µM
[6] = HPLM + 10% dialyzed FBS, 0.19 µM
[7] = HPLM + 10% dialyzed FBS, 0.569 µM
[8] = HPLM + 10% dialyzed FBS, 1.71 µM
[9] = HPLM + 10% dialyzed FBS, 5.12 µM
[10] = HPLM + 10% dialyzed FBS, 15.4 µM
[11] = HPLM + 10% dialyzed FBS, 46.1 µM
[12] = RPMI 5 mM glucose + 10% FBS, 0.000781 µM
[13] = RPMI 5 mM glucose + 10% FBS, 0.00234 µM
[14] = RPMI 5 mM glucose + 10% FBS, 0.00702 µM
[15] = RPMI 5 mM glucose + 10% FBS, 0.0211 µM
[16] = RPMI 5 mM glucose + 10% FBS, 0.0632 µM
[17] = RPMI 5 mM glucose + 10% FBS, 0.19 µM
[18] = RPMI 5 mM glucose + 10% FBS, 0.569 µM
[19] = RPMI 5 mM glucose + 10% FBS, 1.71 µM
[20] = RPMI 5 mM glucose + 10% FBS, 5.12 µM
[21] = RPMI 5 mM glucose + 10% FBS, 15.4 µM
[22] = RPMI 5 mM glucose + 10% FBS, 46.1 µM
[23] = RPMI 5 mM glucose + 10% dialyzed FBS, 0.000781 µM
[24] = RPMI 5 mM glucose + 10% dialyzed FBS, 0.00234 µM
[25] = RPMI 5 mM glucose + 10% dialyzed FBS, 0.00702 µM
[26] = RPMI 5 mM glucose + 10% dialyzed FBS, 0.0211 µM
[27] = RPMI 5 mM glucose + 10% dialyzed FBS, 0.0632 µM
[28] = RPMI 5 mM glucose + 10% dialyzed FBS, 0.19 µM
[29] = RPMI 5 mM glucose + 10% dialyzed FBS, 0.569 µM
[30] = RPMI 5 mM glucose + 10% dialyzed FBS, 1.71 µM
[31] = RPMI 5 mM glucose + 10% dialyzed FBS, 5.12 µM
[32] = RPMI 5 mM glucose + 10% dialyzed FBS, 15.4 µM
[33] = RPMI 5 mM glucose + 10% dialyzed FBS, 46.1 µM

Row | SMILES | cell viability [1] [%] | cell viability [2] [%] | cell viability [3] [%] | cell viability [4] [%] | cell viability [5] [%] | cell viability [6] [%] | cell viability [7] [%] | cell viability [8] [%] | cell viability [9] [%] | cell viability [10] [%] | cell viability [11] [%] | cell viability [12] [%] | cell viability [13] [%] | cell viability [14] [%] | cell viability [15] [%] | cell viability [16] [%] | cell viability [17] [%] | cell viability [18] [%] | cell viability [19] [%] | cell viability [20] [%] | cell viability [21] [%] | cell viability [22] [%] | cell viability [23] [%] | cell viability [24] [%] | cell viability [25] [%] | cell viability [26] [%] | cell viability [27] [%] | cell viability [28] [%] | cell viability [29] [%] | cell viability [30] [%] | cell viability [31] [%] | cell viability [32] [%] | cell viability [33] [%]
1 | COc1cc2c(Oc3ccc(NC(=O)C4(C(=O)Nc5ccc(F)cc5)CC4)cc3F)ccnc2cc1OCCCN1CCOCC1 | 74.7 | 83.2 | 79.3 | 92 | 89.5 | 83.1 | 84.3 | 61 | 63.4 | 28.5 | 4.74 | 80.8 | 86.3 | 91.7 | 94.6 | 85.8 | 85.1 | 86.8 | 72.8 | 41 | 36.9 | 4.62 | 81.2 | 75.3 | 84.8 | 93.8 | 85.6 | 72.1 | 80.9 | 46.5 | 43.3 | 29.6 | 5.96
2 | N[S+](=O)([O-])c1cc(Cl)c(Cl)c([S+](N)(=O)[O-])c1 | 112 | 92.2 | 107 | 105 | 106 | 104 | 116 | 98.3 | 86.5 | 82.6 | 94.3 | 112 | 95.7 | 96 | 101 | 104 | 93.7 | 99.3 | 95.3 | 100 | 89.3 | 87.5 | 97.9 | 99.1 | 110 | 97.5 | 108 | 95.7 | 98.5 | 92.6 | 91.7 | 100 | 85.8
3 | CCOC(=O)N1CCN(/[N+]([O-])=N/Oc2ccc([N+](=O)[O-])cc2[N+](=O)[O-])CC1 | 85.1 | 102 | 102 | 106 | 117 | 101 | 109 | 110 | 97.1 | 98.5 | 50.8 | 80 | 100 | 89.3 | 94.7 | 89.2 | 92.9 | 94.1 | 98.5 | 102 | 87 | 38.5 | 82.1 | 87.5 | 80.1 | 86.8 | 99.7 | 96.6 | 86.7 | 89.5 | 89.2 | 89.6 | 41.9
4 | CC(=O)O[C@@]1(CC[C@H]2[C@@H]3\C=C(C)/C4=C/C(=O)CC[C@]4(C)[C@H]3CC[C@]12C)C(C)=O | 115 | 111 | 107 | 96.1 | 109 | 123 | 130 | 107 | 110 | 116 | 119 | 100 | 102 | 99.9 | 110 | 101 | 108 | 107 | 110 | 109 | 99 | 108 | 88.1 | 92.1 | 95.5 | 113 | 102 | 112 | 107 | 118 | 105 | 86.8 | 112
5 | CC(=O)OCC(=O)[C@@]12\N=C(C)/O[C@@H]1C[C@H]3[C@@H]4CCC/5=C/C(=O)/C=C\[C@]5(C)[C@H]4[C@@H](O)C[C@]23C | 107 | 102 | 109 | 130 | 133 | 137 | 122 | 128 | 105 | 121 | 86.6 | 94.3 | 106 | 94.6 | 105 | 108 | 106 | 107 | 113 | 107 | 98 | 99.6 | 94.1 | 96.1 | 102 | 99.2 | 105 | 117 | 109 | 113 | 109 | 104 | 91.8
6 | CCOc1ccc(Nc2nc(-c3c(C)nc4ccccn34)cs2)cc1 | 109 | 118 | 119 | 111 | 40 | 35.7 | 33.4 | 38.7 | 38.8 | 45.7 | 40.4 |  |  |  |  |  |  |  |  |  |  |  | 119 | 117 | 128 | 120 | 112 | 33.2 | 31.4 | 30.2 | 31.4 | 35.9 | 32.1
7 | O=C1Nc2ccc(Cl)cc2[C@@](C#CC2CC2)(C(F)(F)F)O1 | 74.7 | 97 | 76.4 | 85.9 | 97 | 84.8 | 80.2 | 81.4 | 59 | 57.2 | 79.8 | 73.7 | 78.2 | 77.1 | 80.7 | 88.7 | 80.8 | 79.3 | 80.4 | 81.3 | 77.3 | 12.5 | 70.1 | 90.1 | 92.3 | 101 | 97.9 | 95.9 | 95.6 | 93.2 | 86.7 | 95.7 | 78.3
8 | CCc1c(C(=O)C(N)=O)c2c(OCC(=O)O)cccc2n1Cc1ccccc1 | 113 | 105 | 94.9 | 103 | 122 | 103 | 107 | 100 | 89.4 | 90.8 | 96.5 | 92 | 105 | 91.1 | 103 | 104 | 93.1 | 89.2 | 103 | 98.2 | 100 | 92.3 | 95.3 | 103 | 105 | 101 | 105 | 86.9 | 103 | 96.6 | 96.3 | 91.6 | 92

From the supplement of paper PMC11451515
